The test system of one data set is fish. As to the kind of experiment: Toxicity of commercial fatty acid ethyl esters to fish over 48 h. The data set is classed as in vivo. Particulars: at least 48 h.
Another data set relates to Gyrodactylus turnbulli. Type of data set: cell-based. To be noted: for antiparasitic activity of pure commercial ethyl ester: commercial ethyl ester form, Kolliphor and sonication. The source says:
FIGS. 2A-2C include graphs showing antiparasitic effect of residue extract and preparations (FFA & FAEE) with and without the addition of the food-grade detergent Kolliphor (K) and sonication(S) prior to analysis. […] Gyrodactylus turnbulli was exposed to the following preparations: (2A) residue extract (RE) and RE with Kolliphor and sonication (RE-K-S); (2B) FFA and FFA with Kolliphor and sonication (FFA-K-S); and (2C) FAEE with Kolliphor and sonication (FAEE-K-S). The numbers represent the tested concentrations of the solution applied at μL mL^−1. n=3 wells with at least five observed parasites per well.
FIG. 5 includes a vertical bar graph showing dose-dependent antiparasitic effect of fatty acids in their ethyl ester form as tested in situ. Selected were the four FAs that appeared at the highest level in the residue and its extracts and preparations, as pure commercial compounds: myristic acid (14:0), palmitic acid (16:0), palmitoleic acid (16:1n7), and EPA (20:5n3). The analysis was carried out with the addition of Kolliphor (K) and sonication (S). Time to reach 50% parasite mortality was recorded.
FIG. 11A-11B include graphs showing in-situ antiparasitic effect against Gyrodactylus by commercial FAEEs. Gyrodactylus was exposed by commercial FAEEs at 18.75, 37.5, and 75 μM along with addition of 1% Kolliphor (K) and sonication(S).
An in-situ assay was carried out, as described previously (Kim et al., 2021). Briefly, infected guppies (as confirmed by observation under a stereomicroscope (Richards and Chubb 1996)) were anesthetized with 250 ppm of Sedanol (Stockton-Aquamor Ltd., Israel) (Zorin et al., 2019) followed by euthanasia (brain pithing). Tail fin clips with more than four parasites were excised and transferred, using watchmaker's forceps, to a single well of a 24-well plate containing standardized water (STW: dechlorinated tap water with Na2S2O3 at 0.37 mg L^−1 followed by autoclaving). Ethanol and STW, as well as the relevant solvents and preparation protocol used for extraction, were used as negative controls in each trial. Parasites were observed under an inverted microscope (Axiovert 40 CFL, Carl Zeiss AG) for 4 h, at intervals ranging from 5 to 30 min, during which detached and dead parasites were recorded. A total of 12-15 parasites (with three replicates) were analyzed for each treatment concentration.
Residue extract and preparations were tested at the following concentrations: residue extract at 2.5, 5 and 10 μL mL^−1, and FFA and FAEE at 2.5 and 5 μL mL^−1 (in ethanol). Selected pure active compounds were analyzed, based on the analysis of the FAEE composition. These included the ethyl esters of the following fatty acids: myristic acid (14:0), palmitic acid (16:0), palmitoleic acid (16:1n7), and EPA ([…]) (obtained from Nu-Check, USA). Tested concentrations were calculated based on the amount of active compound in the FA profile of ethyl esters according to the GC-results.

Turning to `CCCCCCCCC(=O)OCC` [9:0, ethyl nonanoate], in the data set on fish (18.75 μM to 37.5 μM), the toxicity to fish entry was “non-toxic”.

For `CCCCCCCCCC(=O)OCC` [10:0, ethyl decanoate], the toxicity to fish result in the data set on fish (18.75 μM to 37.5 μM) is “non-toxic”.

In the case of `CCCCCCCCCCCC(=O)OCC` [12:0, ethyl laurate], the toxicity to fish result in the data set on fish (9.375 μM to 37.5 M) is “non-toxic”.

On to `CCCCCCCCCCCCCC(=O)OCC` [14:0, ethyl myristate], for which the “antiparasitic activity of pure commercial ethyl ester” value (from here on “antiparasitic activity”) in the data set on Gyrodactylus turnbulli is on record as “activity”. Also, the toxicity to fish result in the data set with fish (7.3 μM to 14.5 μM) is reported as “non-toxic”.

For `CCCCCCCCCCCCCCCC(=O)OCC` [16:0, ethyl palmitate], the “antiparasitic activity” value in the data set on Gyrodactylus turnbulli is “activity”. Further, in the data set on fish (7.3 μM to 14.5 μM), the toxicity to fish result is recorded as “non-toxic”.

As for `CCCCC/C=C\C/C=C\CCCCCCCC(=O)OCC` [18:2n6, ethyl linoleate], the toxicity to fish entry in the data set with fish (7.3 μM to 14.5 μM) is given as “non-toxic”.

Regarding `CC/C=C\C/C=C\C/C=C\CCCCCCCC(=O)OCC` [18:3n3, ethyl alpha linolenate], the toxicity to fish result in the data set with fish (7.3 μM to 14.5 μM) is “non-toxic”.

Consider `CCCCC/C=C\C/C=C\C/C=C\CCCCC(=O)OCC` [18:3n6, ethyl gamma linolenate], for which, in the data set on fish (7.3 μM to 14.5 μM), the toxicity to fish result is recorded as “non-toxic”.

Turning to `CC/C=C\C/C=C\C/C=C\C/C=C\C/C=C\CCCC(=O)OCC` [20:5n3], the “effect on the parasite at low concentrations” value in the data set with Gyrodactylus turnbulli (3 and 6 μL mL^−1) was “inducing parasite mortality”. For the same compound, in the data set with Gyrodactylus turnbulli (3 to 24 μL mL^−1), the “dose dependence of antiparasitic effect” value is given as “dose-dependent effect”. For the same compound, in the data set with Gyrodactylus turnbulli (12 and 24 μL mL^−1, compared with the other three FAEEs), the “relative activity (time to 50% parasite mortality)” value was “most active”. Moreover, the “antiparasitic activity” value with Gyrodactylus turnbulli is given as “activity”. Also, the toxicity to fish entry in the data set with fish (7.3 μM to 14.5 μM) is on record as “non-toxic”.
